From ChEMBL document CHEMBL4808179 (Bioorg Med Chem Lett, 2021) come the findings set out here.

Converted amounts (≈) assume the structure as drawn.

The subject of data set [1] is Staphylococcus aureus. The data set can be described thus: Antibacterial activity against vancomycin-intermediate Staphylococcus aureus Mu50 assessed as bacterial growth inhibition. Format: functional.
Data set [2] concerns Enterococcus faecium. The data set can be described thus: Potency index, ratio of Vancomycin MIC to test compound MIC for antibacterial activity against vancomycin resistant Enterococcus faecium Van M HS-08267 assessed as inhibition of bacterial growth. Format: functional.
For data set [3], the system named is Enterococcus faecium. The data set can be described thus: Antibacterial activity against vancomycin resistant Enterococcus faecium Van A HS-0649 assessed as inhibition of bacterial growth. The data set is classed as functional.
For a further data set, the system named is HEK-293T. Kind of data set: Cytotoxicity against human HEK293T cells assessed as reduction in cell viability upto 25 uM. Format: cell-based.
For data set [4], the system named is Staphylococcus aureus. Kind of data set: Potency index, ratio of Vancomycin MIC to test compound MIC for antibacterial activity against methicillin-susceptible Staphylococcus aureus Newman assessed as bacterial growth inhibition. The data set is classed as functional.
The subject of data set [5] is Enterococcus faecium. The data set can be described thus: Antibacterial activity against vancomycin resistant Enterococcus faecium Van A HS-06188 assessed as inhibition of bacterial growth. The data set is classed as functional.
Data set [6] relates to Enterococcus faecium. The data set can be described thus: Antibacterial activity against vancomycin resistant Enterococcus faecium Van M HS-08267 assessed as inhibition of bacterial growth. Format: functional.
The test system of data set [7] is Enterococcus faecium. The data set can be described thus: Potency index, ratio of Vancomycin MIC to test compound MIC for antibacterial activity against vancomycin resistant Enterococcus faecium Van A HS-06188 assessed as inhibition of bacterial growth. The data set is classed as functional.
For data set [8], the system named is Staphylococcus aureus. Kind of data set: Antibacterial activity against methicillin-susceptible Staphylococcus aureus Newman assessed as bacterial growth inhibition. The data set is classed as functional.
For data set [9], the system named is Staphylococcus aureus. Kind of data set: Potency index, ratio of Vancomycin MIC to test compound MIC for antibacterial activity against vancomycin-intermediate Staphylococcus aureus Mu50 assessed as bacterial growth inhibition. The data set is classed as functional.
Data set [10] relates to Staphylococcus aureus. Kind of data set: Antibacterial activity against methicillin-resistant Staphylococcus aureus USA300 assessed as bacterial growth inhibition. The data set is classed as functional.
Data set [11] concerns Enterococcus faecium. The data set can be described thus: Potency index, ratio of Vancomycin MIC to test compound MIC for antibacterial activity against vancomycin resistant Enterococcus faecium Van M HS-0847 assessed as inhibition of bacterial growth. Format: functional.
For data set [12], the system named is Enterococcus faecium. Kind of data set: Potency index, ratio of Vancomycin MIC to test compound MIC for antibacterial activity against vancomycin resistant Enterococcus faecium Van B V(R) assessed as inhibition of bacterial growth. Format: functional.
Data set [13] concerns Enterococcus faecium. Kind of data set: Antibacterial activity against vancomycin resistant Enterococcus faecium Van M HS-0847 assessed as inhibition of bacterial growth. The data set is classed as functional.
For data set [14], the system named is Staphylococcus aureus. The data set can be described thus: Antibacterial activity against methicillin-resistant Staphylococcus aureus HS-663 assessed as bacterial growth inhibition. Format: functional.
Data set [15] has as its system L02. The data set can be described thus: Cytotoxicity against human L02 cells assessed as reduction in cell viability < 6.25 uM. Format: cell-based.
The subject of data set [16] is Enterococcus faecium. The data set can be described thus: Antibacterial activity against vancomycin resistant Enterococcus faecium Van B V(R) assessed as inhibition of bacterial growth. The data set is classed as functional.
The subject of another data set is Escherichia coli. The data set can be described thus: Antibacterial activity against Escherichia coli AB1157 assessed as bacterial growth inhibition. The data set is classed as functional.
A further data set has as its system Acinetobacter baumannii. The data set can be described thus: Antibacterial activity against Acinetobacter baumannii assessed as bacterial growth inhibition. Format: functional.
Data set [17] concerns L02. The data set can be described thus: Cytotoxicity against human L02 cells assessed as reduction in cell viability >= 12.5 uM. The data set is classed as cell-based.

Broadly, the MIC is the least concentration at which growth counts as inhibited.

`CN[C@H](CC(C)C)C(=O)N[C@H]1C(=O)N[C@@H](CC(N)=O)C(=O)N[C@H]2C(=O)N[C@H]3C(=O)N[C@H](C(=O)N[C@H](C(=O)NNCc4ccc(-c5ccc(Cl)cc5)cc4)c4cc(O)cc(O)c4-c4cc3ccc4O)[C@H](O)c3ccc(c(Cl)c3)Oc3cc2cc(c3O[C@@H]2O[C@H](CO)[C@@H](O)[C@H](O)[C@H]2O[C@H]2C[C@](C)(N)[C@H](O)[C@H](C)O2)Oc2ccc(cc2Cl)[C@H]1O`: the MIC in the data set on Staphylococcus aureus [1] was 4 µg/mL (≈ 2.4 µM); in the data set on Enterococcus faecium [3] it was 16 µg/mL (≈ 9.62 µM); in the data set on Enterococcus faecium [5], 8 µg/mL (≈ 4.81 µM); with Enterococcus faecium [6], 4 µg/mL (≈ 2.4 µM); with Staphylococcus aureus [8], not above 0.0625 µg/mL; in the data set with Staphylococcus aureus [10] it was 1 µg/mL (≈ 0.601 µM). Further, the minimal inhibitory concentration (MIC) in the data set on Enterococcus faecium [13] is 8 µg/mL (≈ 4.81 µM); with Staphylococcus aureus [14] it was 0.0625 µg/mL (≈ 0.0376 µM); with Enterococcus faecium [16] it was 4 µg/mL (≈ 2.4 µM); with Escherichia coli it was 128 µg/mL (≈ 76.9 µM); with Acinetobacter baumannii, 128 µg/mL (≈ 76.9 µM). The Ratio with Enterococcus faecium [2] is on record as 8; with Staphylococcus aureus [4] it was 32; in the data set with Enterococcus faecium [7] it was 8; with Staphylococcus aureus [9] it was 2; in the data set with Enterococcus faecium [11], 8; in the data set with Enterococcus faecium [12] it was 8. The Activity result with HEK-293T is “Non-Toxic”; in the data set on L02 [15] it was “Toxic”.

For `CN[C@H](CC(C)C)C(=O)N[C@H]1C(=O)N[C@@H](CC(N)=O)C(=O)N[C@H]2C(=O)N[C@H]3C(=O)N[C@H](C(=O)N[C@H](C(=O)N/N=C/c4ccc(-c5ccccc5)cc4)c4cc(O)cc(O)c4-c4cc3ccc4O)[C@H](O)c3ccc(c(Cl)c3)Oc3cc2cc(c3O[C@@H]2O[C@H](CO)[C@@H](O)[C@H](O)[C@H]2O[C@H]2C[C@](C)(N)[C@H](O)[C@H](C)O2)Oc2ccc(cc2Cl)[C@H]1O`, the MIC with Staphylococcus aureus [1] was 2 µg/mL (≈ 1.23 µM); in the data set with Enterococcus faecium [3], 4 µg/mL (≈ 2.46 µM); in the data set with Enterococcus faecium [5], 4 µg/mL (≈ 2.46 µM); in the data set with Enterococcus faecium [6] it was 2 µg/mL (≈ 1.23 µM); in the data set on Staphylococcus aureus [8] it was not above 0.0625 µg/mL; in the data set with Staphylococcus aureus [10], 0.25 µg/mL (≈ 0.154 µM). Moreover, the MIC in the data set on Enterococcus faecium [13] is 4 µg/mL (≈ 2.46 µM); with Staphylococcus aureus [14], 0.0625 µg/mL (≈ 0.0384 µM); in the data set on Enterococcus faecium [16], 2 µg/mL (≈ 1.23 µM); in the data set with Escherichia coli it was 128 µg/mL (≈ 78.6 µM); in the data set with Acinetobacter baumannii it was more than 128 µg/mL. The Ratio with Enterococcus faecium [2] was found to be 8; with Staphylococcus aureus [4] it was 32; in the data set with Enterococcus faecium [7], 8; in the data set on Staphylococcus aureus [9] it was 2; with Enterococcus faecium [11], 8; in the data set with Enterococcus faecium [12] it was 8.

Take `CN[C@H](CC(C)C)C(=O)N[C@H]1C(=O)N[C@@H](CC(N)=O)C(=O)N[C@H]2C(=O)N[C@H]3C(=O)N[C@H](C(=O)N[C@H](C(=O)N/N=C/c4ccc(-c5ccc(Cl)cc5)cc4)c4cc(O)cc(O)c4-c4cc3ccc4O)[C@H](O)c3ccc(c(Cl)c3)Oc3cc2cc(c3O[C@@H]2O[C@H](CO)[C@@H](O)[C@H](O)[C@H]2O[C@H]2C[C@](C)(N)[C@H](O)[C@H](C)O2)Oc2ccc(cc2Cl)[C@H]1O`: the MIC with Staphylococcus aureus [1] was found to be 2 µg/mL (≈ 1.2 µM); in the data set with Enterococcus faecium [3], 4 µg/mL (≈ 2.41 µM); in the data set on Enterococcus faecium [5] it was 16 µg/mL (≈ 9.63 µM); in the data set on Enterococcus faecium [6], 4 µg/mL (≈ 2.41 µM); in the data set on Staphylococcus aureus [8], 0.5 µg/mL (≈ 0.301 µM); in the data set on Staphylococcus aureus [10] it was 0.5 µg/mL (≈ 0.301 µM). The minimal inhibitory concentration (MIC) is 4 µg/mL (≈ 2.41 µM) in the data set on Enterococcus faecium [13]; 0.0625 µg/mL (≈ 0.0376 µM) in the data set on Staphylococcus aureus [14]; 8 µg/mL (≈ 4.81 µM) in the data set on Enterococcus faecium [16]; 128 µg/mL (≈ 77 µM) in the data set on Escherichia coli; more than 128 µg/mL in the data set with Acinetobacter baumannii. The Ratio worked out at 8 in the data set on Enterococcus faecium [2]; 4 in the data set with Staphylococcus aureus [4]; 8 with Enterococcus faecium [7]; 2 in the data set on Staphylococcus aureus [9]; 8 in the data set on Enterococcus faecium [11]; 8 in the data set on Enterococcus faecium [12].

For the compound `CN[C@H](CC(C)C)C(=O)N[C@H]1C(=O)N[C@@H](CC(N)=O)C(=O)N[C@H]2C(=O)N[C@H]3C(=O)N[C@H](C(=O)N[C@H](C(=O)N[C@@H](CS)C(=O)O)c4cc(O)cc(O)c4-c4cc3ccc4O)[C@H](O)c3ccc(c(Cl)c3)Oc3cc2cc(c3O[C@@H]2O[C@H](CO)[C@@H](O)[C@H](O)[C@H]2O[C@H]2C[C@](C)(N)[C@H](O)[C@H](C)O2)Oc2ccc(cc2Cl)[C@H]1O`, the MIC with Staphylococcus aureus [1] was 128 µg/mL (≈ 82.5 µM); in the data set on Enterococcus faecium [3], more than 128 µg/mL; in the data set on Enterococcus faecium [5] it was 16 µg/mL (≈ 10.3 µM); in the data set with Enterococcus faecium [6], 8 µg/mL (≈ 5.15 µM); in the data set with Staphylococcus aureus [8] it was 64 µg/mL (≈ 41.2 µM); with Staphylococcus aureus [10], 32 µg/mL (≈ 20.6 µM). Further, the minimum inhibitory concentration (MIC) was 8 µg/mL (≈ 5.15 µM) with Enterococcus faecium [13]; 2 µg/mL (≈ 1.29 µM) with Staphylococcus aureus [14]; 8 µg/mL (≈ 5.15 µM) in the data set on Enterococcus faecium [16]; more than 128 µg/mL with Escherichia coli; more than 128 µg/mL in the data set with Acinetobacter baumannii. Also, the Ratio in the data set on Enterococcus faecium [2], with Enterococcus faecium [7], in the data set with Enterococcus faecium [11] and in the data set on Enterococcus faecium [12] was 8 in each case. In the data set with L02 [17], the Activity entry was “Toxic”.

`CN[C@H](CC(C)C)C(=O)N[C@H]1C(=O)N[C@@H](CC(N)=O)C(=O)N[C@H]2C(=O)N[C@H]3C(=O)N[C@H](C(=O)N[C@H](C(=O)NNCc4ccc(-c5ccccc5)cc4)c4cc(O)cc(O)c4-c4cc3ccc4O)[C@H](O)c3ccc(c(Cl)c3)Oc3cc2cc(c3O[C@@H]2O[C@H](CO)[C@@H](O)[C@H](O)[C@H]2O[C@H]2C[C@](C)(N)[C@H](O)[C@H](C)O2)Oc2ccc(cc2Cl)[C@H]1O`: the MIC is 1 µg/mL (≈ 0.614 µM) in the data set on Staphylococcus aureus [1]; 8 µg/mL (≈ 4.91 µM) with Enterococcus faecium [3]; 8 µg/mL (≈ 4.91 µM) in the data set with Enterococcus faecium [5]; 4 µg/mL (≈ 2.45 µM) in the data set on Enterococcus faecium [6]; not above 0.0625 µg/mL in the data set with Staphylococcus aureus [8]; 0.5 µg/mL (≈ 0.307 µM) in the data set on Staphylococcus aureus [10]. In addition, the MIC with Enterococcus faecium [13] was 8 µg/mL (≈ 4.91 µM); in the data set on Staphylococcus aureus [14], less than 0.0625 µg/mL; with Enterococcus faecium [16], 4 µg/mL (≈ 2.45 µM); in the data set with Escherichia coli it was 64 µg/mL (≈ 39.3 µM); in the data set on Acinetobacter baumannii, 64 µg/mL (≈ 39.3 µM). In addition, the Ratio with Enterococcus faecium [2] was found to be 8; with Staphylococcus aureus [4] it was 32; with Enterococcus faecium [7], 8; in the data set on Staphylococcus aureus [9] it was 2; in the data set on Enterococcus faecium [11] it was 8; in the data set with Enterococcus faecium [12], 8.
